How the values were obtained:
MDA-MB-231 cells = experiment: Cell proliferation by live-cell imaging (IncuCyte), MDA-MB-231 TNBC cells; format: cell-based; conditions: 40 μM, 48 and 72 h
Text: TNBC represents approximately 10–15% of all breast cancers and is the most aggressive subtype of breast cancer. Patients with TNBC have a poor outcome compared to the other subtypes of breast cancer. In the breast cancer tissue, β-catenin is overexpressed compared to the normal tissue. The overexpression of β-catenin is associated with TNBC and lymph node metastasis. […] There is a quest for the development of new therapies to treat TNBC. […] Effects on cell proliferation of MDA-MB-231 TNBC cells were evaluated by live-time cell imaging using the Incucyte S5 system.
Figure 10 Inhibition of MDA-MB-231, HCC1806, and HCC1937 TNBC cell growth by compounds 5–10 and reference compounds 3, […], and iCRT3 at 40 μM. Cell growth inhibition was quantified using the IncuCyte cell-by-cell analysis software, by comparison with the growth of DMSO-treated cells at 72 h, set at 100% (mean ± SD, n = 3, one-way ANOVA, **p ≤ 0.01, ****p ≤ 0.0001).
Cell proliferation of breast cancer cell lines upon continuous treatment with select compounds was evaluated by the real-time quantitative live-cell imaging system. MDA-MB-231 (1500 cells/well), HCC1806 (2000 cells/well), and HCC1937 (3000 cells/well) were seeded in 96-well plates, treated with increasing doses of selected compounds and images (5 images/well) were acquired every 8 h for 3 days at 10× magnification in an IncuCyte SX5 live-content imaging system (Essen Bioscience) at 37 °C with 5% CO2. Images were analyzed using IncuCyte cell-by-cell analysis software to detect and quantify live cells (phase-contrast). The number of cells at each time point was quantified using IncuCyte cell-by-cell analysis software, and cell growth was evaluated as the normalized ratio between counted cells at each time point normalized to those counted at time 0. Graph drawing and statistical analyses were performed in GraphPad Prism according to the statistical tests described in the figure legends.

[1] = system: Wnt/β-catenin signaling pathway; experiment: Topflash/Fopflash luciferase report assay in HCT116 cells; format: cell-based, human; conditions: 30 μM
Text: We synthesized derivatives 5–10 bearing 5-membered and 6-membered heterocyclic rings at the position 3′ or 4′ of the B phenyl ring. […] SW480 cells show higher Wnt activation compared to HCT116 cells.[28] […] In SW480 cells, compounds 5–10 were in the 1.75%(10)–7.32%(7) range of residual luciferase activity, except 6(28.46%), compared to 3(21.61%); in HCT116 cells, compounds 5–10 were in the 0.37%(7)–5.88%(5) range, compared to 3 (18.75%) (Table 1 and Figure 5).
Figure 5 Residual luciferase activity (%) by compounds 5–10 and reference compound 3 in SW480 cells (left panel) and HCT116 cells (right panel). Data are represented as the mean ± SD of three independent experiments, each performed in triplicate.
Briefly, the Topflash plasmid (Beyotime, Zhejiang, China) contains 7 TCF/LEF binding sites, while the Fopflash plasmid (Beyotime, Zhejiang, China) contains 6 mutated TCF/LEF binding sites, which are located in the upstream of the luciferase reporter. SW480 and HCT116 cell lines were cultured in 90% DMEM (HyClone, #SH30243.01) plus 10% fetal bovine serum (Gibco, #10270) and plasmocin (mpp-39-03, InvivoGen), respectively. The Topflash/Fopflash vector and plasmid pTK-renilla together were co-transfected to the cells. […] The Dual-Glo luciferase assay kit (Promega, #E1910) was used to measure the luminescence intensity (Figure 2).

SW480 cells = experiment: Cell viability (XTT) of SW480 colon cancer cells; format: cell-based
Description: PKCδ has been recognized to be a proapoptotic kinase; its cleavage and activation promote apoptotic cell death (Table 2).[33]
Cell viability was evaluated by XTT[55] (SW480 cells) or MTT[56] (HCT116 cells) colorimetric assays. Briefly, cells (range 10–30 × 10^3 cells/well) were seeded in 96-well microculture plates and then exposed to increasing concentrations of different compounds (range 0–300 μM) for 48 or 72 h. […] Absorbance at 450 nm and a reference wavelength of 650 nm was then measured using a microplate spectrophotometer (Multiskan FC Microplate Photometer, Thermo Scientific, Waltham, MA). The cell growth inhibition rate was calculated utilizing the following formula: inhibition rate (%) = […] × 100, where Control OD is the absorbance of the negative control and Sample OD is the absorbance of the test sample. The IC50 values were determined with GraphPad Prism 5 through constructed dose–response curves.

[2] = system: β-catenin/Tcf-4 interaction; experiment: Co-immunoprecipitation of β-catenin and Myc-tagged Tcf-4 in HCT116 cells; format: cell-based, human; conditions: HCT116 transfected with Myc-tagged Tcf-4, LiCl 50 mM, 50 μM, 24 h
Description: Toward this end, we performed a co-immunoprecipitation study in HCT116 cells transfected with Myc-tagged Tcf-4, treated with the two compounds, and immunoprecipitated with Myc antisera.
HCT116 cells were transiently transfected with the Myc-tagged Tcf-4 plasmid and treated with LiCl (50 mM) and 9 (50 μM) or 10 (50 μM) for 24 h. Lysates were immunoprecipitated using Myc-agarose beads and western blot analysis was performed. […] Myc-agarose beads saturated with the Myc-blocking peptide before immunoprecipitation were used as a negative control.
Co-immunoprecipitation assays were performed as previously described.[16],[60] Briefly, 2 × 10^4/cm^2 HCT116 cells were seeded in a 100 mm dish and incubated overnight at 37 °C. Cells were transfected with pcDNA/Myc Tcf-4 (Addgene plasmid #16512; http://n2t.net/addgene:16512; RRID:Addgene_16512)[29] and, after overnight incubation, were starved for 8 h in a medium containing Opti-MEM (#31985070, Thermo Fisher Scientific), FBS 0.5%, pen/strep 1%, NaPyr 1%, NeAA 1%, and then co-treated with 50 mM LiCl and DMSO or 50 μM compound 9 or 50 μM compound […] for 24 h. Cells were collected at the end of the treatments and lysed in a buffer containing 0.5% Triton X-100, 0.5 mM EDTA, and 1 mM DTT. […] Chemioluminescence was detected using WesternBright ECL (#K-12045-D50, Advansta), according to the manufacturer’s protocol.

How did the “effect on MDA-MB-231 cell proliferation” value (MDA-MB-231 cells) turn out when `O=S(=O)(Nc1ccc(-c2ccccn2)cc1)c1ccc(Br)cc1` [Compound 9, 4-Bromo-N-(4-(pyridin-2-yl)phenyl)benzenesulfonamide] was run?
Its value is “less effective”.

What about the “% Luciferase Activity HCT116 (residual)” value [1] of the same compound?
The value was 4.33%.

And the “improvement in SW480 cell growth inhibition compared with 5-FU” value (SW480 cells)?
The value was 6 fold.

And the “association between β-catenin and Tcf-4 (co-immunoprecipitation)” value [2]?
Its value is “completely abrogated the association”.

— PMC10353061 (ACS Pharmacology & Translational Science, 2023)
